Assay results published in patent publication US10064832B2, “Kartogenin-conjugated chitosan particles with improved sustained release property and biocombatibility, and use thereof” (priority 2014, dated 2018).

Test system: osteoarthritis model rats
Assay: Osteoarthritis regeneration after intra-articular injection in osteoarthritis animal model
Type: in vivo
Details: injected into knee joints at 6 and 9 weeks after surgery, euthanized at 14 weeks
Description: The rats were euthanized at 14 weeks, and joint tissues were separated and fixed in 10% paraformaldehyde, and then treated with 6% nitric acid for to decalcification. The tissues were embedded in a Tissue-Tek O.C.T. compound (Sakura Finetek Japan Co., Ltd.), sectioned to 10 μm and attached to a slide glass, and thereafter, staining with Safranin-O/fast green and immunofluorescence of collagen type II (COL2A1) and aggrecan were performed.

With `O=C(O)c1ccccc1C(=O)Nc1ccc(-c2ccccc2)cc1` [kartogenin] the “COL2 protein (immunofluorescent staining)” value was “noticeable reduction”, the “aggrecan protein (immunofluorescent staining)” value was “noticeable reduction” and the “cartilage histology (Safranin-O/fast green)” value was “weak vertical matrix cracks in a deep area of cartilage and loss and surface peeling of cartilage”.
